The values that follow come from patent US8748566B2, “Pharmacologically active antiviral peptides and methods of use” (priority 2000, dated 2014).

What all share (format): cell-based
Assay [1] concerns hrR3. As to the kind of experiment: Virucidal assay. How it is done:
[…] The treated virus was diluted 200-fold with serum-supplemented DMEM and assayed for infectivity approximately 1 hour later in microtiter wells seeded with Vero cells (3.5×10^4 cells/well) 1 d earlier. Forty or 100 microliter volumes of diluted virus were adsorbed for 1 or 2 h at 37° C. and lacZ^+ cells were scored 8 hours later. In some experiments, aliquots of diluted virus were first dialyzed (Spectra/Por; MWCO 12-14,000) overnight at 4° C. against a 60-fold excess volume of Hepes-buffered serum-supplemented DMEM or forced by syringe through 0.22 μm membranes (Millex-GV; Millipore) before the remaining infectious virus was assayed.

The test system of assay [2] is hrR3. As to the kind of experiment: LacZ+ virus (hrR3) entry assay. The note with it: Table 3; read-out: Entry Blocking Activity (IC50). On the procedure:
Confluent Vero cell cultures in 96-well microtiter plates were switched to Hepes-buffered serum-free DMEM, cooled on ice to 4° C. for 30 min, and infected with hrR3 for 1 hour at 4° C. in 40 μl of medium. Unattached virus was removed by rinsing with ice-cold medium. Treatments with antiviral peptide SEQ ID NO:1, referred to as EB, or a control peptide which comprised the RRKK tetra-peptide (SEQ ID NO:16) attached to a scrambled version of the membrane transiting peptide RRKKLAALPLVLAAPLAVLA (SEQ ID NO:17) (referred to as EBX), or mock-treatments with peptide-free medium were carried out in serum-free DMEM as indicated. Virus entry was initiated by transferring cultures to 37° C. To inactivate any remaining extracellular virus, cultures were rinsed with PBS and exposed to low pH citrate buffer (40 mM citric acid, 10 mM KCl, 135 mM NaCl, pH 3.0, according to Highlander et al., J. Virol. 61:3356 (1987), for 1 min at 23° C. The citrate was rinsed off with PBS and cultures were maintained in serum-supplemented DMEM until they were fixed with 0.5% gluteraldehyde in 5×PBS for 30 min at 23° C., stained for β-galactosidase activity for 1 hour or overnight at 23° C. with X-gal (Fisher Biotech; BP 1615-1) in 1×PBS containing […], 1.3 mM K4Fe(CN)6, and 1.3 mM K3Fe(CN)6, and scored for the presence of blue lacZ^+ cells.
In these studies, the hrR3 virus was pre-adsorbed to cells for 1 hour at 4° C. before ice cold 25 μM EB or EBX were added in serum-free DMEM. After an additional 1 hour at 4° C., cultures were shifted to 37° C. to initiate virus entry. At 15 min intervals following the temperature shift, any virus remaining outside the cells was inactivated by washing the cultures with low pH citrate buffer. Cultures were then rinsed and returned to peptide-free serum-supplemented DMEM until they were fixed and stained for f-galactosidase 8 hours after the temperature shift.
This conclusion is strengthened by the finding that the EB-sensitive phase of infection with pre-adsorbed virus clearly precedes expression of lacZ genes in hrR3 infected cells (FIG. 7A). Again, hrR3 was pre-adsorbed to cells for 1 hour at 4° C., unattached virus was rinsed off, and cells were kept for an additional hour at 4° C. Cultures were then transferred to 23° C. for 30 min before they were switched to 37° C. The more gradual change to 37° C. allowed cell layers to remain intact through subsequent frequent medium changes. Immediately following viral adsorption, cells were treated with 50 μM EB for 1 hour periods at consecutive 1 hour intervals. Between 1 and 4 hours post-infection, virus entry was inhibited by 70-80%. […] Parallel cultures were immediately fixed after mock-treatments and stained with X-gal. In these cultures, blue (lacZ^+) cells first appeared 7 hours post-infection and their number increased nearly linearly for the next 3 hours (FIG. 7A, (∘)). By 7 hours post-infection, EB ceased to be inhibitory.

The test system of the next assay is virus. As to the kind of experiment: Anti-free virus activity (Table 3).
Assay [3] deals with HSV-1 KOS. As to the kind of experiment: Plaque reduction assay, HSV-1 KOS infection of Vero cell cultures. The conditions noted are these: for antiviral activity compared with EB: plaque reduction (FIG. 1D, FIG. 2). How it is done:
The procedures for growing Vero cells and preparing high titer stocks of HSV-1 KOS as described in (Grau et al., Invest. Ophthal. and Vis. Sci. 30: 2474 (1989)) were utilized. Vero cells were maintained in carbonate-buffered DMEM supplemented with 5% calf serum and 5% fetal bovine serum (regular medium). For some studies, cells were switched to serum-free DMEM buffered with 25 mM Hepes (pH 7.4) and allowed to adapt to that medium for 30 min prior to experimental treatments. Vero cells were seeded into wells (0.28 cm^2) of microtiter plates either at 3.5×10^4 cells/well for use 1 day later (8×10^4 cells/well) or at 1×10^4 cells/well for use 3 days later (2×10^5 cells/well).
Confluent Vero cell cultures in microtiter plates were infected for 1 hour at 37° C. in 40 μl of medium. Except where indicated, peptide treatments in 40 μl of medium lasted from 1 hour before through 1 hour after infection. At the end of the adsorption period, the cultures were re-fed with 100 μl of regular medium. Plaque formation was scored 2 days later and the number of plaques scored per well was normalized to the number counted in the absence of peptide. Using an ocular micrometer, plaque size ([…]) was determined by measuring the largest plaque diameter (L) and the diameter at a 90° angle to that (S). The size of each of the first 40 scored plaques was measured except when a plaque included less than 10 rounded cells or touched the side of the well.
On the technique in general: Plaques are areas of infected cells; plaque reduction assays count them against a control.

Assay [4] concerns HSV-1 KOS. Description: Yield reduction assay (virus production in infected Vero cells). On the procedure: Three days post-infection, Vero cell cultures in microtiter plates were frozen (−80° C.) and thawed (37° C.) three times. Cells were suspended by repeated pipetting and microtiter plates were spun for 10 min at 700×g in a Beckman model TJ-6 tabletop centrifuge. The virus-containing supernates were serially diluted in regular medium and titered on Vero cells. Plaques were counted after staining the monolayers with crystal violet as taught by Grau et al., Invest. Ophthalmol. Vis. Sci. 30:2474 (1989).
Vero cell cultures as prepared in Example 1 were infected with HSV-1 and assayed for virus production as described in Example 1. The antiviral activity of an antiviral peptide according to the present invention EB (SEQ ID NO:1) was compared to the antiviral activity of the current HSV antiviral nucleoside standard, acyclovir. The two peptides were added to the Vero cells one hour prior to infection with HSV.

Where [5] appears, read: 4° C., read-out: Virucidal Activity 4° C. (IC50).
Setting [6] is: 37° C., read-out: Virucidal Activity 37° C. (IC50).

Peptide text beside a SMILES is read from it. * marks the point of attachment. Biotin = O=C1N[C@H]2[C@H](CS[C@H]2CCCCC(=O)*)N1; Ahx = NCCCCCC(=O)O

As usually defined, the IC50 is the concentration that inhibits the measured activity by half. Consider `CC(C)C[C@H](NC(=O)[C@H](C)NC(=O)[C@H](CC(C)C)NC(=O)[C@H](CC(C)C)NC(=O)[C@@H](NC(=O)[C@H](C)NC(=O)[C@@H]1CCCN1C(=O)[C@H](CC(C)C)NC(=O)[C@H](CC(C)C)NC(=O)[C@H](C)NC(=O)[C@@H](NC(=O)[C@H](C)NC(=O)[C@H](C)NC(=O)[C@H](CCCCN)NC(=O)[C@H](CCCCN)NC(=O)[C@H](CCCNC(=N)N)NC(=O)[C@H](CCCNC(=N)N)NC(=O)CCCCCNC(=O)CCCC[C@@H]1SC[C@@H]2NC(=O)N[C@@H]21)C(C)C)C(C)C)C(=O)N[C@@H](CC(C)C)C(=O)N[C@@H](C)C(=O)N1CCC[C@H]1C(=O)O` [bEB] ({Biotin-Ahx}-RRKKAAVALLPAVLLALLAP-OH), for which the IC50 in the assay with hrR3 [1] (setting [5]) is 110 µM; in the assay with hrR3 [1] (setting [6]) it was 35 µM; in the assay with hrR3 [2] it was 15 µM; in the assay on virus, 21 µM. Besides, the “antiviral activity compared with EB” value in the assay with HSV-1 KOS [3] is given as “essentially as effective as EB”.
Take `CC(C)C[C@H](NC(=O)[C@H](CC(=O)O)NC(=O)[C@H](CC(N)=O)NC(=O)[C@@H](NC(=O)[C@@H](NC(=O)[C@H](C)NC(=O)CNC(=O)[C@H](C)NC(=O)[C@H](Cc1ccc(O)cc1)NC(=O)CNC(=O)[C@@H]1CCCN1C(=O)[C@H](CCCNC(=N)N)NC(=O)[C@H](CCCNC(=N)N)NC(=O)[C@H](CCCNC(=N)N)NC(=O)[C@H](CCC(N)=O)NC(=O)[C@H](CCCNC(=N)N)NC(=O)[C@H](CCCNC(=N)N)NC(=O)[C@H](CCCCN)NC(=O)[C@H](CCCCN)NC(=O)[C@H](CCCNC(=N)N)NC(=O)CNC(=O)[C@H](Cc1ccc(O)cc1)NC(=O)CCCCCNC(=O)CCCC[C@@H]1SC[C@@H]2NC(=O)N[C@@H]21)C(C)C)C(C)C)C(=O)O` [bTAT-9, b-YGRKKRRQRRR-9] ({Biotin-Ahx}-YGRKKRRQRRRPGYAGAVVNDL-OH): the “Virucidal Activity 4° C. (IC50)” value in the assay with hrR3 [1] (4° C.) is given as “None”. Moreover, the “Virucidal Activity 37° C. (IC50)” value with hrR3 [1] (37° C.) is “None”. The IC50 with hrR3 [2] turned out to be 26 µM; in the assay with virus it was 8 µM.
Consider `CC(C)C[C@H](NC(=O)[C@H](C)NC(=O)[C@H](CCCCN)NC(=O)[C@H](CC(C)C)NC(=O)[C@H](C)NC(=O)[C@H](CC(C)C)NC(=O)[C@H](CCCCN)NC(=O)[C@H](CC(C)C)NC(=O)[C@H](C)NC(=O)[C@H](CC(C)C)NC(=O)[C@H](CCCCN)NC(=O)CCCCCNC(=O)CCCC[C@@H]1SC[C@@H]2NC(=O)N[C@@H]21)C(=O)N[C@@H](CCCCN)C(=O)N[C@@H](C)C(=O)N[C@@H](C)C(=O)N[C@@H](CC(C)C)C(=O)N[C@@H](CCCCN)C(=O)N[C@@H](CC(C)C)C(=O)N[C@@H](C)C(N)=O` [bKLA, b-KLALKLALKALKAALKLA-amide], for which the IC50 in the assay with hrR3 [1] (setting [5]) was determined as 45 µM; in the assay with hrR3 [2], 11 µM; with virus, 4.5 µM.
Take `N=C(N)NCCC[C@H](NC(=O)[C@@H](N)CCCNC(=N)N)C(=O)N[C@@H](CCCCN)C(=O)N[C@@H](CCCCN)C(=O)O` [R-R-K-K tetramer, R-R-K-K, reference compound] (H-RRKK-OH; N-terminus and C-terminus assumed): the antiviral activity entry in the assay with HSV-1 KOS [3] (presence of serum, concentrations as high as 200 μM (FIG. 1A)) is on record as “no antiviral activity”.
Consider `CC[C@H](C)[C@H](NC(=O)[C@H](CCCCN)NC(=O)[C@@H](NC(=O)[C@H](CCC(N)=O)NC(=O)[C@H](CCCNC(=N)N)NC(=O)CCCCCNC(=O)CCCC[C@@H]1SC[C@@H]2NC(=O)N[C@@H]21)[C@@H](C)CC)C(=O)N[C@@H](Cc1c[nH]c2ccccc12)C(=O)N[C@@H](Cc1ccccc1)C(=O)N1CCC[C@H]1C(=O)N[C@@H](CC(N)=O)C(=O)N[C@@H](CCCNC(=N)N)C(=O)N[C@@H](CCCNC(=N)N)C(=O)N[C@@H](CCSC)C(=O)N[C@@H](CCCCN)C(=O)N[C@@H](Cc1c[nH]c2ccccc12)C(=O)N[C@@H](CCCCN)C(=O)N[C@@H](CCCCN)C(=O)N1CCC[C@H]1C(=O)NCC(=O)N[C@@H](Cc1ccc(O)cc1)C(=O)N[C@@H](C)C(=O)NCC(=O)N[C@@H](C)C(=O)N[C@H](C(=O)N[C@H](C(=O)N[C@@H](CC(N)=O)C(=O)N[C@@H](CC(=O)O)C(=O)N[C@@H](CC(C)C)C(=O)O)C(C)C)C(C)C` [bHOM-9, b-RQIKIWFPNRRMKWKK-9] ({Biotin-Ahx}-RQIKIWFPNRRMKWKKPGYAGAVVNDL-OH), for which the “Virucidal Activity 4° C. (IC50)” value with hrR3 [1] (4° C.) was “None”. The IC50 with hrR3 [1] (setting [6]) was 115 µM; with hrR3 [2], 9 to 12 µM; in the assay on virus, 6 µM.
For `Nc1nc2c(ncn2COCCO)c(=O)[nH]1` [acyclovir, reference compound], in the assay on HSV-1 KOS [4] (added one hour prior to infection, EB statement for concentrations exceeding 10 μM (FIG. 3)), the “antiviral activity, EB compared with acyclovir” value is “highest antiviral activity at low dosages”.
In the case of `CC[C@H](C)[C@H](NC(=O)[C@H](CCCCN)NC(=O)[C@@H](NC(=O)[C@H](CCC(N)=O)NC(=O)[C@H](CCCNC(=N)N)NC(=O)CCCCCNC(=O)CCCC[C@@H]1SC[C@@H]2NC(=O)N[C@@H]21)[C@@H](C)CC)C(=O)N[C@@H](Cc1ccccc1)C(=O)N[C@@H](Cc1ccccc1)C(=O)N1CCC[C@H]1C(=O)N[C@@H](CC(N)=O)C(=O)N[C@@H](CCCNC(=N)N)C(=O)N[C@@H](CCCNC(=N)N)C(=O)N[C@@H](CCSC)C(=O)N[C@@H](CCCCN)C(=O)N[C@@H](Cc1ccccc1)C(=O)N[C@@H](CCCCN)C(=O)N[C@@H](CCCCN)C(N)=O` [bHOMFF, b-RQIKI F FPNRRMK F KK-amide] ({Biotin-Ahx}-RQIKIFFPNRRMKFKK-NH2), the “Virucidal Activity 4° C. (IC50)” value in the assay with hrR3 [1] (4° C.) was “None”. For the same compound, in the assay with hrR3 [1] (37° C.), the “Virucidal Activity 37° C. (IC50)” value is “None”. Besides, the IC50 worked out at 40 µM in the assay on hrR3 [2] and 34 µM with virus.
As for b-YGRKKRRQRRR-9x [bTAT-9x], the “Virucidal Activity 4° C. (IC50)” value with hrR3 [1] (4° C.) is “None”. In addition, the “Virucidal Activity 37° C. (IC50)” value with hrR3 [1] (37° C.) is “None”. Also, in the assay on hrR3 [2], the IC50 is 67 µM.
As to “NH2-RRKKAAVALLAV LLALLAPP-COOH (H-RRKKAAVALLAVLLALLAPP-OH) [EBPP]”, the “antiviral activity compared with EB” value in the assay on HSV-1 KOS [4] (yield reduction (FIG. 1E; data not shown)) and in the assay with HSV-1 KOS [3] was “twice as active” throughout.
For the compound RQIKIWFPNRRMKWKK [bHOMd], the “Virucidal Activity 4° C. (IC50)” value with hrR3 [1] (4° C.) is “None”. Besides, the IC50 was found to be 115 µM in the assay with hrR3 [1] (setting [6]) and 7 µM with hrR3 [2].
